Assays:
fungal tyrosinase = assay: In vitro test of inhibition of isolated fungal tyrosinase (L-dopa, dopachrome OD 490 nm); format: biochemical; settings: 490 nm
Description: Tyrosinase catalyses the formation of L-dopaquinone and then of dopachrome from L-dopa. Now, dopachrome is a coloured compound that may be quantified by visible spectrophotometry at 490 nm. The use of an active agent capable of modifying the enzymatic activity will be reflected by a variation in the optical density at 490 nm. The to ratio of the rates of formation of dopachrome makes it possible to determine precisely the activations or inhibitions obtained with the various test molecules.
The sample to be tested is incubated in the presence of fungal tyrosinase (Sigma), for 5 minutes with stirring. L-Dopa (Sigma), a tyrosinase substrate, is incubated for 10 minutes in the absence of light, in the presence or absence of the test molecules. The calculation of the percentage of inhibition is performed by relating the test OD to the OD of the negative control without molecule.
In the context of this in vitro test, the p-coumaric acid derivatives were tested at final concentrations of 10^−4M and 10^−5M.

normal human melanocytes = assay: Cytotoxicity on normal human melanocytes, PNPP assay; format: cell-based; settings: 24 hours, relative to untreated wells
Experimental: The cytotoxicity of the active agents is studied on normal human melanocytes in 24-well plates, via assay with PNPP (P-nitrophenyl phosphate), this substance being converted into p-nitrophenol via the intracellular acid phosphatases of viable cells. The absorbance of p-nitrophenol at 405 nm is directly proportional to the number of viable cells.
The active agents are tested at 2 different concentrations (10^−4 M and 10^−5 M) and added to the culture medium and incubated at 37° C. for 24 hours. The assay with PNPP is performed on the cell lawn and the results are expressed as a percentage of viability relative to the negative control (untreated wells).

[1] = Antiradical activity, acellular DPPH model; settings: DPPH 30 minutes, absorbance 520 nm
Experimental: The antiradical activity of the derivatives derived from the syntheses described above was evaluated in an in vitro acellular model using DPPH.
1,1-Diphenyl 2-picryihydrazyl, on account of its paramagnetic structure, can accept an electron or a hydrogen radical to become a stable diamagnetic molecule. This free radical, which is purple coloured in ethanol, has a strong absorption band at 520 nm.
The addition of a compound that provides electrons results in a decolorization of the 1,1-diphenyl 2-picrylhydrazyl that is proportional to the number of electrons taken up by the radical, which may be monitored by measuring the absorbance at 520 nm.
DPPH is incubated for 30 minutes in the presence of the derivatives described above, tested at a concentration of 10^−5M, or alone for the control. At the end of the incubation, the antiradical activity of the above derivatives is evaluated by measuring the absorbance of the solution at 520 nm.
The antiradical activity of each test product is calculated according to the formula, as a percentage: 100−((OD520 in the presence of the test compound/OD520 in the absence of compound)×100)

eye of rabbits = assay: Ocular irritation in rabbits; format: in vivo; settings: 10% in a 0.5% xanthan gel; pure, 0.1 ml single instillation, rabbit eye
Experimental: The preparations described above were instilled pure, in a single application, at a rate of 0.1 ml, into the eye of 3 rabbits according to the method recommenced by the OCDE Directive No. 405 of 24 February 1987 concerning the study of the “acute irritant/corrosive effect on the eyes”.

in vivo = settings: both, rat, po
Experimental: (§1) The toxicology tests were performed on the compound obtained according to Example 1 incorporated at 10% into a 0.5% xanthan gel, by ocular evaluation on rabbits, by studying the absence of abnormal toxicity via single oral administration to rats, and by studying the sensitizing power on guinea pigs.
(§2) The preparations described were administered in a single portion orally at a dose of 2 g/kg of body weight, to 5 male rats and 5 female rats according to a protocol inspired by the OCDE Directive No. 401 of 24 February 1987 and adapted to cosmetic products.

rats = assay: in vivo; settings: both, rat, po
Experimental: as §1, §2

guinea pigs = assay: Skin sensitization potential in guinea pigs (Magnusson and Kligmann maximization test); format: in vivo; settings: 10% in a 0.5% xanthan gel
Description: The preparations described are subjected to the maximization test described by Magnusson and Kligmann, which protocol is in accordance with the OCDE guideline No. 406.

## COc1cc(/C=C/C(=O)NCCc2ccc(O)c(O)c2)ccc1O [Example 1, N-trans-feruloyldopamine]
Fungal tyrosinase; 10^−4M
  Inhibition of fungal tyrosinase, percentage of inhibition, Mean 10^−4M: 9.18%
Fungal tyrosinase; 10^−5M
  Inhibition of fungal tyrosinase, percentage of inhibition, Mean 10^−5M: 0%
Normal human melanocytes; 10^−4 M
  Percentages of viability, Mean 10^−4 M: 94.49%
Normal human melanocytes; 10^−5 M
  Percentages of viability, Mean 10^−5 M: 119.83%
[1]
  Antiradical activity, Mean 10^−5 M: 60.01%
Eye of rabbits
  Ocular irritation classification: non-irritant to the eyes
In vivo
  LD50: > 2000 mg/kg
rats
  LD0: greater than 2000 mg/kg
Guinea pigs
  Skin sensitization classification: not sensitizing on contact with the skin

— patent US9089499B2, “Para-coumaric acid or para-hydroxycinnamic acid derivatives and their use in cosmetic or dermatological compositions” (BASF Beauty Care Solutions France S.A.S., priority 2005, dated 2015)
